Assay results from the NIST ThermoML archive (doi:10.1021/je900482x).
± gives the expanded uncertainty stated by the source.

Test: isobaric coefficient of expansion
Details: 298.15 K; 5000 kPa; Liquid; Microcalorimeter

Structure (SMILES)	isobaric coefficient of expansion
CCn1cc[n+](C)c1.F[B-](F)(F)F [1-ethyl-3-methylimidazolium tetrafluoroborate]	0.000601 ± 1.5e-05 1/K
CCCCCC[n+]1ccn(C)c1.O=S(=O)([N-]S(=O)(=O)C(F)(F)F)C(F)(F)F	0.000664 ± 1.6e-05 1/K
CCCCCCCC[n+]1ccn(C)c1.F[B-](F)(F)F [1-methyl-3-octylimidazolium tetrafluoroborate]	0.00061 ± 1.2e-05 1/K
CCCC[n+]1cccc(C)c1.F[B-](F)(F)F [1-butyl-3-methylpyridinium tetrafluoroborate]	0.000594 ± 1.5e-05 1/K
CCCCCCn1cc[n+](C)c1.F[B-](F)(F)F [1-hexyl-3-methylimidazolium tetrafluoroborate]	0.00061 ± 1.5e-05 1/K
CCn1cc[n+](C)c1.O=S(=O)([N-]S(=O)(=O)C(F)(F)F)C(F)(F)F	0.000659 ± 1.6e-05 1/K

Same assay, conditions: 298.15 K; 10000 kPa; Liquid; Microcalorimeter

Structure (SMILES)	isobaric coefficient of expansion
CCn1cc[n+](C)c1.F[B-](F)(F)F [1-ethyl-3-methylimidazolium tetrafluoroborate]	0.000596 ± 1.5e-05 1/K
CCCCCC[n+]1ccn(C)c1.O=S(=O)([N-]S(=O)(=O)C(F)(F)F)C(F)(F)F	0.000654 ± 1.6e-05 1/K
CCCCCCCC[n+]1ccn(C)c1.F[B-](F)(F)F [1-methyl-3-octylimidazolium tetrafluoroborate]	0.000603 ± 1.2e-05 1/K
CCCC[n+]1cccc(C)c1.F[B-](F)(F)F [1-butyl-3-methylpyridinium tetrafluoroborate]	0.000589 ± 1.4e-05 1/K
CCCCCCn1cc[n+](C)c1.F[B-](F)(F)F [1-hexyl-3-methylimidazolium tetrafluoroborate]	0.000603 ± 1.5e-05 1/K
CCn1cc[n+](C)c1.O=S(=O)([N-]S(=O)(=O)C(F)(F)F)C(F)(F)F	0.000651 ± 1.6e-05 1/K

Same assay, conditions: 298.15 K; 15000 kPa; Liquid; Microcalorimeter

Structure (SMILES)	isobaric coefficient of expansion
CCn1cc[n+](C)c1.F[B-](F)(F)F [1-ethyl-3-methylimidazolium tetrafluoroborate]	0.000587 ± 1.4e-05 1/K
CCCCCC[n+]1ccn(C)c1.O=S(=O)([N-]S(=O)(=O)C(F)(F)F)C(F)(F)F	0.000643 ± 1.6e-05 1/K
CCCCCCCC[n+]1ccn(C)c1.F[B-](F)(F)F [1-methyl-3-octylimidazolium tetrafluoroborate]	0.000595 ± 1.2e-05 1/K
CCCC[n+]1cccc(C)c1.F[B-](F)(F)F [1-butyl-3-methylpyridinium tetrafluoroborate]	0.000582 ± 1.4e-05 1/K
CCCCCCn1cc[n+](C)c1.F[B-](F)(F)F [1-hexyl-3-methylimidazolium tetrafluoroborate]	0.000595 ± 1.5e-05 1/K
CCn1cc[n+](C)c1.O=S(=O)([N-]S(=O)(=O)C(F)(F)F)C(F)(F)F	0.000641 ± 1.6e-05 1/K

Same assay, conditions: 298.15 K; 20000 kPa; Liquid; Microcalorimeter

Structure (SMILES)	isobaric coefficient of expansion
CCn1cc[n+](C)c1.F[B-](F)(F)F [1-ethyl-3-methylimidazolium tetrafluoroborate]	0.00058 ± 1.4e-05 1/K
CCCCCC[n+]1ccn(C)c1.O=S(=O)([N-]S(=O)(=O)C(F)(F)F)C(F)(F)F	0.000633 ± 1.6e-05 1/K
CCCCCCCC[n+]1ccn(C)c1.F[B-](F)(F)F [1-methyl-3-octylimidazolium tetrafluoroborate]	0.000586 ± 1.2e-05 1/K
CCCC[n+]1cccc(C)c1.F[B-](F)(F)F [1-butyl-3-methylpyridinium tetrafluoroborate]	0.000577 ± 1.4e-05 1/K
CCCCCCn1cc[n+](C)c1.F[B-](F)(F)F [1-hexyl-3-methylimidazolium tetrafluoroborate]	0.000586 ± 1.4e-05 1/K
CCn1cc[n+](C)c1.O=S(=O)([N-]S(=O)(=O)C(F)(F)F)C(F)(F)F	0.000633 ± 1.6e-05 1/K

Same assay, conditions: 298.15 K; 25000 kPa; Liquid; Microcalorimeter

Structure (SMILES)	isobaric coefficient of expansion
CCn1cc[n+](C)c1.F[B-](F)(F)F [1-ethyl-3-methylimidazolium tetrafluoroborate]	0.000575 ± 1.4e-05 1/K
CCCCCC[n+]1ccn(C)c1.O=S(=O)([N-]S(=O)(=O)C(F)(F)F)C(F)(F)F	0.000626 ± 1.5e-05 1/K
CCCCCCCC[n+]1ccn(C)c1.F[B-](F)(F)F [1-methyl-3-octylimidazolium tetrafluoroborate]	0.00058 ± 1.2e-05 1/K
CCCC[n+]1cccc(C)c1.F[B-](F)(F)F [1-butyl-3-methylpyridinium tetrafluoroborate]	0.000572 ± 1.4e-05 1/K
CCCCCCn1cc[n+](C)c1.F[B-](F)(F)F [1-hexyl-3-methylimidazolium tetrafluoroborate]	0.00058 ± 1.4e-05 1/K
CCn1cc[n+](C)c1.O=S(=O)([N-]S(=O)(=O)C(F)(F)F)C(F)(F)F	0.000624 ± 1.5e-05 1/K

Same assay, conditions: 298.15 K; 30000 kPa; Liquid; Microcalorimeter

Structure (SMILES)	isobaric coefficient of expansion
CCn1cc[n+](C)c1.F[B-](F)(F)F [1-ethyl-3-methylimidazolium tetrafluoroborate]	0.000568 ± 1.4e-05 1/K
CCCCCC[n+]1ccn(C)c1.O=S(=O)([N-]S(=O)(=O)C(F)(F)F)C(F)(F)F	0.000615 ± 1.5e-05 1/K
CCCCCCCC[n+]1ccn(C)c1.F[B-](F)(F)F [1-methyl-3-octylimidazolium tetrafluoroborate]	0.000573 ± 1.1e-05 1/K
CCCC[n+]1cccc(C)c1.F[B-](F)(F)F [1-butyl-3-methylpyridinium tetrafluoroborate]	0.000566 ± 1.4e-05 1/K
CCCCCCn1cc[n+](C)c1.F[B-](F)(F)F [1-hexyl-3-methylimidazolium tetrafluoroborate]	0.000573 ± 1.4e-05 1/K
CCn1cc[n+](C)c1.O=S(=O)([N-]S(=O)(=O)C(F)(F)F)C(F)(F)F	0.000617 ± 1.5e-05 1/K

Same assay, conditions: 298.15 K; 35000 kPa; Liquid; Microcalorimeter

Structure (SMILES)	isobaric coefficient of expansion
CCn1cc[n+](C)c1.F[B-](F)(F)F [1-ethyl-3-methylimidazolium tetrafluoroborate]	0.000561 ± 1.4e-05 1/K
CCCCCC[n+]1ccn(C)c1.O=S(=O)([N-]S(=O)(=O)C(F)(F)F)C(F)(F)F	0.000605 ± 1.5e-05 1/K
CCCCCCCC[n+]1ccn(C)c1.F[B-](F)(F)F [1-methyl-3-octylimidazolium tetrafluoroborate]	0.000564 ± 1.1e-05 1/K
CCCC[n+]1cccc(C)c1.F[B-](F)(F)F [1-butyl-3-methylpyridinium tetrafluoroborate]	0.00056 ± 1.4e-05 1/K
CCCCCCn1cc[n+](C)c1.F[B-](F)(F)F [1-hexyl-3-methylimidazolium tetrafluoroborate]	0.000564 ± 1.4e-05 1/K
CCn1cc[n+](C)c1.O=S(=O)([N-]S(=O)(=O)C(F)(F)F)C(F)(F)F	0.000606 ± 1.5e-05 1/K

Same assay, conditions: 298.15 K; 40000 kPa; Liquid; Microcalorimeter

Structure (SMILES)	isobaric coefficient of expansion
CCn1cc[n+](C)c1.F[B-](F)(F)F [1-ethyl-3-methylimidazolium tetrafluoroborate]	0.000554 ± 1.4e-05 1/K
CCCCCC[n+]1ccn(C)c1.O=S(=O)([N-]S(=O)(=O)C(F)(F)F)C(F)(F)F	0.000596 ± 1.5e-05 1/K
CCCCCCCC[n+]1ccn(C)c1.F[B-](F)(F)F [1-methyl-3-octylimidazolium tetrafluoroborate]	0.000558 ± 1.1e-05 1/K
CCCC[n+]1cccc(C)c1.F[B-](F)(F)F [1-butyl-3-methylpyridinium tetrafluoroborate]	0.000556 ± 1.4e-05 1/K
CCCCCCn1cc[n+](C)c1.F[B-](F)(F)F [1-hexyl-3-methylimidazolium tetrafluoroborate]	0.000558 ± 1.4e-05 1/K
CCn1cc[n+](C)c1.O=S(=O)([N-]S(=O)(=O)C(F)(F)F)C(F)(F)F	0.0006 ± 1.5e-05 1/K

Same assay, conditions: 298.15 K; 45000 kPa; Liquid; Microcalorimeter

Structure (SMILES)	isobaric coefficient of expansion
CCn1cc[n+](C)c1.F[B-](F)(F)F [1-ethyl-3-methylimidazolium tetrafluoroborate]	0.000549 ± 1.3e-05 1/K
CCCCCC[n+]1ccn(C)c1.O=S(=O)([N-]S(=O)(=O)C(F)(F)F)C(F)(F)F	0.00059 ± 1.4e-05 1/K
CCCCCCCC[n+]1ccn(C)c1.F[B-](F)(F)F [1-methyl-3-octylimidazolium tetrafluoroborate]	0.000552 ± 1.1e-05 1/K
CCCC[n+]1cccc(C)c1.F[B-](F)(F)F [1-butyl-3-methylpyridinium tetrafluoroborate]	0.000551 ± 1.3e-05 1/K
CCCCCCn1cc[n+](C)c1.F[B-](F)(F)F [1-hexyl-3-methylimidazolium tetrafluoroborate]	0.000552 ± 1.4e-05 1/K
CCn1cc[n+](C)c1.O=S(=O)([N-]S(=O)(=O)C(F)(F)F)C(F)(F)F	0.000595 ± 1.5e-05 1/K

Same assay, conditions: 298.15 K; 50000 kPa; Liquid; Microcalorimeter

Structure (SMILES)	isobaric coefficient of expansion
CCn1cc[n+](C)c1.F[B-](F)(F)F [1-ethyl-3-methylimidazolium tetrafluoroborate]	0.000545 ± 1.3e-05 1/K
CCCCCC[n+]1ccn(C)c1.O=S(=O)([N-]S(=O)(=O)C(F)(F)F)C(F)(F)F	0.000584 ± 1.4e-05 1/K
CCCCCCCC[n+]1ccn(C)c1.F[B-](F)(F)F [1-methyl-3-octylimidazolium tetrafluoroborate]	0.000547 ± 1.1e-05 1/K
CCCC[n+]1cccc(C)c1.F[B-](F)(F)F [1-butyl-3-methylpyridinium tetrafluoroborate]	0.000549 ± 1.3e-05 1/K
CCCCCCn1cc[n+](C)c1.F[B-](F)(F)F [1-hexyl-3-methylimidazolium tetrafluoroborate]	0.000547 ± 1.3e-05 1/K
CCn1cc[n+](C)c1.O=S(=O)([N-]S(=O)(=O)C(F)(F)F)C(F)(F)F	0.000589 ± 1.4e-05 1/K
